Source: US12692461B2, “Composite form of tetraacetylenediamine” (ONE1STAR SOLUTIONS LIMITED, priority 2020, dated 2026)
Converted amounts (≈) assume the structure as drawn. Like-named read-outs stand apart in the source and are kept apart here.

Columns and labels:
[1] = cited from earlier work
[2] = Example 3: performance and water miscibility in presence of sodium percarbonate, weight of remaining material
Protocol: The experiment was carried out to check the performance and water miscibility of TAED in presence of sodium percarbonate. 1 gram of TAED with 2.5 gram of sodium percarbonate was added 1 litre water and stirred at 500 rpm using overhead stirrer. In Experiment set up the amount of water used for the study was 1 litre.

[3] = Example 4: performance and water miscibility in presence of sodium percarbonate, undissolved TAED at T=0 and T=6 months; format: physicochemical
Protocol: The TAED:Sodium percarbonate ratio used for the study was 1:2.5 w/w. […] This 100 mL solution was either used as it was or it was further diluted to with 900 mL water to make a 1 L sample.

amount remained after 5 min ([2]; 100 ml water): 800 mg
amount remained after 5 min ([2]; 250 ml water): 750 mg
amount remained after 5 min ([2]; 500 ml water): 690 mg
Undissolved TAED ([3]; 1 g TAED, 1 L, 1 min, T = 6 months (40° C., 75% relative humidity)): 90 mg
Undissolved TAED ([3]; 1 g TAED, 1 L, 4 min, T = 0): 60 mg
Undissolved TAED ([3]; 1 g TAED, 1 L, 4 min, T = 6 months (40° C., 75% relative humidity)): 60 mg
Undissolved TAED ([3]; 1 g TAED, 100 mL diluted to 1 L, 1 min, T = 0): 90 mg
Undissolved TAED ([3]; 1 g TAED, 100 mL water, stirring 1 min, T = 6 months (40° C., 75% relative humidity)): 150 mg
Undissolved TAED ([3]; 1 g TAED, 100 mL water, stirring 4 min, T = 0): 100 mg
Undissolved TAED ([3]; 1 g TAED, 100 mL water, stirring 4 min, T = 6 months (40° C., 75% relative humidity)): 100 mg
Undissolved TAED ([3]; 1 g TAED, sodium percarbonate 1:2.5 w/w, 100 mL water, stirring 1 min, T = 0): 150 mg
Undissolved TAED ([3]; 3 gram TAED, 1 litre, stirring 1 min, T = 0): 1.8 gram
Undissolved TAED ([3]; 3 gram TAED, 1 litre, stirring 1 min, T = 6 month): 1.8 gram
Undissolved TAED ([3]; 3 gram TAED, 1 litre, stirring 4 min, T = 0): 1.2 gram
Undissolved TAED ([3]; 3 gram TAED, 1 litre, stirring 4 min, T = 6 month): 1.2 gram
Undissolved TAED ([3]; 3 gram TAED, 100 ml water, stirring 1 min, T = 0): 2 gram
Undissolved TAED ([3]; 3 gram TAED, 100 ml water, stirring 1 min, T = 6 month): 2 gram
Undissolved TAED ([3]; 3 gram TAED, 100 ml water, stirring 4 min, T = 0): 1.8 gram
Undissolved TAED ([3]; 3 gram TAED, 100 ml water, stirring 4 min, T = 6 month): 1.8 gram
Structure (SMILES): CC(=O)N(CCN(C(C)=O)C(C)=O)C(C)=O [TAED (Commercially available), Tetraacetylethylenediamine]
solubility ([1]; 20° C.): 200 µg/mL (≈ 876 µM)
solubility [1]: around 200 mg/L
